Reference: ChEMBL document CHEMBL5465560, “Selectivity Literature for EUbOPEN Chemogenomic Library” (2024)
Values belong to the compound of their own block, whether it stands above or below them.

What was measured:
[1] = target: T1, Serine/threonine-protein kinase ULK1 (Homo sapiens) (UniProt O75385); assay: Selectivity interaction (KinomeScan (DiscoverX)) EUB0000607a ULK1; conditions: at 10 µM
T1 sequence (whole entry): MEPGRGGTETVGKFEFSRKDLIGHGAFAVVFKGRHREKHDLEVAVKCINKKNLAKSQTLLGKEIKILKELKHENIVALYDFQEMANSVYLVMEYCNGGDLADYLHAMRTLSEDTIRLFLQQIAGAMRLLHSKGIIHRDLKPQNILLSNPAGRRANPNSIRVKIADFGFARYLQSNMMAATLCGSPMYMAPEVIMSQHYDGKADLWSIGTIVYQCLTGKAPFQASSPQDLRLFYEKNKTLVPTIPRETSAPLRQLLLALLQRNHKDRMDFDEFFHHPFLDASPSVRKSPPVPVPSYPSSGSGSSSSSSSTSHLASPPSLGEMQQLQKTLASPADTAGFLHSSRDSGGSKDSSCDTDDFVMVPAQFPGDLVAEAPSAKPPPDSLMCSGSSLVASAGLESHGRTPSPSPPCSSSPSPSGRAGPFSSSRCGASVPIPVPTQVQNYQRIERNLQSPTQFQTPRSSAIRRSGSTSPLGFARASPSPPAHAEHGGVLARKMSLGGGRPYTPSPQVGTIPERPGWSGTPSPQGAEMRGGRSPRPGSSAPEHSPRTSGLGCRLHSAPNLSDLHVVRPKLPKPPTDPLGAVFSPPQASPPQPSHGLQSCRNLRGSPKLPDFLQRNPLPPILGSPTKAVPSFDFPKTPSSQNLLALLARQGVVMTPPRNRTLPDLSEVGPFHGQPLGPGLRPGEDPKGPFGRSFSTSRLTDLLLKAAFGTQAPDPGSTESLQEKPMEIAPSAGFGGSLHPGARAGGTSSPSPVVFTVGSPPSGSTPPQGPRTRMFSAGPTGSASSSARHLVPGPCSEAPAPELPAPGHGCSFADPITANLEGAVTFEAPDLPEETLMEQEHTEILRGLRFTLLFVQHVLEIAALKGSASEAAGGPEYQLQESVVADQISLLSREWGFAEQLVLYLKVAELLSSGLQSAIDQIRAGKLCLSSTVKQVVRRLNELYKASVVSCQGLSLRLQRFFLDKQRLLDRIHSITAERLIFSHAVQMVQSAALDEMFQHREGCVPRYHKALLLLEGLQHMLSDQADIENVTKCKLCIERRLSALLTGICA

[2] = target: Fibroblast growth factor receptor 4 (Homo sapiens, UniProt P22455); assay: Selectivity interaction (Kinase panel (Invitrogen)) EUB0000639a FGFR4; conditions: at 200 nM
Chain of Fibroblast growth factor receptor 4 (P22455 22-802 limits assumed): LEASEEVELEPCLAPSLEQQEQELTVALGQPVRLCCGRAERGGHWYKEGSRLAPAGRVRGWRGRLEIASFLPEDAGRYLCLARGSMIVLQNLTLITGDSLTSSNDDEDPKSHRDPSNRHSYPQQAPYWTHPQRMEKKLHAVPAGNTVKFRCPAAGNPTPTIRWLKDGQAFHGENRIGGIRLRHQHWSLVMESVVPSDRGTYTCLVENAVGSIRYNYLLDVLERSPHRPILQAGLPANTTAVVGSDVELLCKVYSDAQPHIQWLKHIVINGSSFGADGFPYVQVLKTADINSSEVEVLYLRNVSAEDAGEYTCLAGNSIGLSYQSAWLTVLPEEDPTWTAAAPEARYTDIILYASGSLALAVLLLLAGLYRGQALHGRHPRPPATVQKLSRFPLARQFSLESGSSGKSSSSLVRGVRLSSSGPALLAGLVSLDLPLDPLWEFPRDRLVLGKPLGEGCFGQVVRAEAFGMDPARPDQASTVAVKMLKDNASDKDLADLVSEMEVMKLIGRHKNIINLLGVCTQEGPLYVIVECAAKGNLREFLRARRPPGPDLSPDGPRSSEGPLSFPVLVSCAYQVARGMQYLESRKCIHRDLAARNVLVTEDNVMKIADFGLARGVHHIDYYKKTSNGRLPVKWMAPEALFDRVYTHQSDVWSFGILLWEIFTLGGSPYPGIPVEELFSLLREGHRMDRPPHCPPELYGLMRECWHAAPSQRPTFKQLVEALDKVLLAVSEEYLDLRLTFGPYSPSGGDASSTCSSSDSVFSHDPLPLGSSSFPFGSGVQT

[3] = target: MAP kinase-activated protein kinase 3 (Homo sapiens) (UniProt Q16644); assay: Selectivity interaction (ActivX KiNativ screen (kinase selectivity in THP-1 cell lysates)) EUB0000639a MAPKAPK3; assay type: subcellular; conditions: lysate
Chain of MAP kinase-activated protein kinase 3 (Homo sapiens) (Q16644 whole entry, looked up): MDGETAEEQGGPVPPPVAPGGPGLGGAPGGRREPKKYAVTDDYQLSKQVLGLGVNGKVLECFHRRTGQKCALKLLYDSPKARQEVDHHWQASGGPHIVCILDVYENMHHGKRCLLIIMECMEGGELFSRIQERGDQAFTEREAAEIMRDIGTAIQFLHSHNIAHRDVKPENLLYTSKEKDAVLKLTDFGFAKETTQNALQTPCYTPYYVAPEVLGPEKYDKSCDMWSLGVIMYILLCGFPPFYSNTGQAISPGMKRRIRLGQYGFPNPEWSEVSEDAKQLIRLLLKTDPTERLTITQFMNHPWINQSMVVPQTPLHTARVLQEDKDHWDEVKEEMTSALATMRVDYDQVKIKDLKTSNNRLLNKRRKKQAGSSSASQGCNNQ

[4] = target: Serine/threonine-protein kinase MARK2 (Homo sapiens) (UniProt Q7KZI7); assay: Selectivity interaction (Kinase panel (Invitrogen)) EUB0000639a MARK2; conditions: at 200 nM
Chain of Serine/threonine-protein kinase MARK2 (Homo sapiens) (Q7KZI7 whole entry): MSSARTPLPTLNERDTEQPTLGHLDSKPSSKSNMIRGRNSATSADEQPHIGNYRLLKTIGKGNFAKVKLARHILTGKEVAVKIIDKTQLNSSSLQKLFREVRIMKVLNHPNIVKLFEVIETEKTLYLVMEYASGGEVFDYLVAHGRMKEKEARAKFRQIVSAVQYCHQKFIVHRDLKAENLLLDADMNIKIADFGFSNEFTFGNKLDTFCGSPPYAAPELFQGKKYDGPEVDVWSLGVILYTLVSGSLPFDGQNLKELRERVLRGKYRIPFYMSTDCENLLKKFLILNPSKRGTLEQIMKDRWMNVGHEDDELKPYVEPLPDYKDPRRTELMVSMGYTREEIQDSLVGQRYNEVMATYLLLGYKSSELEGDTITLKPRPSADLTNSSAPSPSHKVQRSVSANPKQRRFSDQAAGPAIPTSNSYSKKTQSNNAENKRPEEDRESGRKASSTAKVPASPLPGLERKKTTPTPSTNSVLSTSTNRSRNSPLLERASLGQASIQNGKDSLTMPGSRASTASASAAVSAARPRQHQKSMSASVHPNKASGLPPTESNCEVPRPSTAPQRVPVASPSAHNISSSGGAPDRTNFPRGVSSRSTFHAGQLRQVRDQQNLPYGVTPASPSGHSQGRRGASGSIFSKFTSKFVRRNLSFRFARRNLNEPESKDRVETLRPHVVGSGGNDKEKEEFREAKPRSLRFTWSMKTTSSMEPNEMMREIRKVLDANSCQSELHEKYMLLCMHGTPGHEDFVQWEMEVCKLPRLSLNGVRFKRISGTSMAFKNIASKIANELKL

[5] = target: Serine/threonine-protein kinase N2 (Homo sapiens, UniProt Q16513); assay: Selectivity interaction (ActivX KiNativ screen (kinase selectivity in THP-1 cell lysates)) EUB0000639a PKN2; assay type: subcellular; conditions: lysate
Chain of Serine/threonine-protein kinase N2 (Q16513 whole entry, looked up): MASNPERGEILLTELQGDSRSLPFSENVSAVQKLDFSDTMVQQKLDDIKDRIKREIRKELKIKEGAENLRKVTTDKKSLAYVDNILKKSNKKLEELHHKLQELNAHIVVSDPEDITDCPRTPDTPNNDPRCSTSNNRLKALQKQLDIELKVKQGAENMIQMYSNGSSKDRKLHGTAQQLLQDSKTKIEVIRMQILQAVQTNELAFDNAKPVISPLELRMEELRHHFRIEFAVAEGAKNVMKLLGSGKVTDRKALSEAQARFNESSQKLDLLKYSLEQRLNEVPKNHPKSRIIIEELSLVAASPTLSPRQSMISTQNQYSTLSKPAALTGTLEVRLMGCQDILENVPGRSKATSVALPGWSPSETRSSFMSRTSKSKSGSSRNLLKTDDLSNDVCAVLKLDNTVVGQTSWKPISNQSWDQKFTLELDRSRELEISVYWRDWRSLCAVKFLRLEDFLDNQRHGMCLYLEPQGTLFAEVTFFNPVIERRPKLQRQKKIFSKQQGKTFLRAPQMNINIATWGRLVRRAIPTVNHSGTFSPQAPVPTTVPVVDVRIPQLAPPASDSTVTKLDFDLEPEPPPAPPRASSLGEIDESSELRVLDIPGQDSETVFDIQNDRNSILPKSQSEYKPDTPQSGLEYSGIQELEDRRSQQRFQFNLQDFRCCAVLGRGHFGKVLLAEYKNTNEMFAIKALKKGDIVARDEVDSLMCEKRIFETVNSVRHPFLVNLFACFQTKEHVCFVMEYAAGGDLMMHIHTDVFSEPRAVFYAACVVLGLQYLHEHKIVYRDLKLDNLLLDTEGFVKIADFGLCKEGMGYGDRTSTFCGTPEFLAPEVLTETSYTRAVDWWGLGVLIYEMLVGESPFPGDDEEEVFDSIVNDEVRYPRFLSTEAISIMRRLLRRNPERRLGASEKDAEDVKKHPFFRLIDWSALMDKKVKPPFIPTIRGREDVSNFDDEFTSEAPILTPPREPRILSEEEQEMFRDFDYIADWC

[6] = target: Activin receptor type-1-like (Homo sapiens) (UniProt P37023); assay: Selectivity interaction (KinomeScan (DiscoverX)) EUB0000595a ACVRL1; conditions: at 10 µM
Chain of Activin receptor type-1-like (Homo sapiens) (P37023 whole entry): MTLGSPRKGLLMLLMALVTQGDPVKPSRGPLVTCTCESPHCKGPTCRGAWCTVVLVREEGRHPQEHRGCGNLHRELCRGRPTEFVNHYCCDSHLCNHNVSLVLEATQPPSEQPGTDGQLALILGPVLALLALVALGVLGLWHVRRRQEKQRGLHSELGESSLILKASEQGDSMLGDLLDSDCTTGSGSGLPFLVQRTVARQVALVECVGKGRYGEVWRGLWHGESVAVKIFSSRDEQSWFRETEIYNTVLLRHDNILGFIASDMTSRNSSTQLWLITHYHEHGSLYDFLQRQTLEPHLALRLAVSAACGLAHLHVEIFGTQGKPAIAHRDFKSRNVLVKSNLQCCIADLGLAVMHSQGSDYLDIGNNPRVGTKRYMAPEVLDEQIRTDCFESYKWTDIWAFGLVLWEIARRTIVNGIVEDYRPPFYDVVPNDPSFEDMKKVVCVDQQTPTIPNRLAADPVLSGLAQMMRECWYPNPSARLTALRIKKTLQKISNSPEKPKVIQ

[7] = target: T2, Serine/threonine-protein kinase RIO3 (Homo sapiens) (UniProt O14730); assay: Selectivity interaction (KinomeScan (DiscoverX)) EUB0000595a RIOK3; conditions: at 10 µM
T2 sequence (whole entry): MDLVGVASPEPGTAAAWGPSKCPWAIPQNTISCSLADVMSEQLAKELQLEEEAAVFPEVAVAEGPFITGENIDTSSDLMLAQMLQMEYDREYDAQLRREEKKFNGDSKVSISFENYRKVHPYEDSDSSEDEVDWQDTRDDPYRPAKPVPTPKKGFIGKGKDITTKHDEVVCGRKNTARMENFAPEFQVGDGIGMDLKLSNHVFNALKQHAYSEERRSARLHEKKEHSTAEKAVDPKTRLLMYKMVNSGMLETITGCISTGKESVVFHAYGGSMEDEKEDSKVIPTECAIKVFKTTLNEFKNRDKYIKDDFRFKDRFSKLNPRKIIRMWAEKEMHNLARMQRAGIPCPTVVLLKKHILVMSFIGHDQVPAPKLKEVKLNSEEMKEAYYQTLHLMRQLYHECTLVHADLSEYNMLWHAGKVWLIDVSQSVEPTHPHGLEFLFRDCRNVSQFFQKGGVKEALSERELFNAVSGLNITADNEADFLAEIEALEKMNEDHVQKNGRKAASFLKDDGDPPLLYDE

[8] = target: N-lysine methyltransferase SMYD2 (Homo sapiens) (UniProt Q9NRG4); conditions: at 10 µM
Chain of N-lysine methyltransferase SMYD2 (Homo sapiens) (Q9NRG4 whole entry): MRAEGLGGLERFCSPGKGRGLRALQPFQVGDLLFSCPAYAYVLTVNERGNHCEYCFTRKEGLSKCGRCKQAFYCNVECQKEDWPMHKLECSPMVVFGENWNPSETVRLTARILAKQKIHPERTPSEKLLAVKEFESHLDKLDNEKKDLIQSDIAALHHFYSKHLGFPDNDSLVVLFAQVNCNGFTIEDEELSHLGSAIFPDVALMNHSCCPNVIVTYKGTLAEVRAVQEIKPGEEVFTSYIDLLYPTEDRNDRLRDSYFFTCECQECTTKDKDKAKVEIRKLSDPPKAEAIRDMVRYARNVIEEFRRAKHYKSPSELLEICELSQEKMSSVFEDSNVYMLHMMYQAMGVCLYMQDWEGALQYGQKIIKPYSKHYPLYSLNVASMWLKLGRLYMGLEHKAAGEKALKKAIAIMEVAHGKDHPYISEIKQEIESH

[9] = target: Interleukin-1 receptor-associated kinase 1 (Homo sapiens) (UniProt P51617); assay: Selectivity interaction (Kinase panel (KiNativ target engagement assay in Jurkat cells)) EUB0001635a IRAK1; assay type: cell-based; conditions: Selectivity number of off-targets 0.0, Selectivity number of targets 233.0, Source Knowledge https://www.sciencedirect.com/science/article/pii/S2451945619300674?via%3Dihub, at 1 µM
Chain of Interleukin-1 receptor-associated kinase 1 (Homo sapiens) (P51617 whole entry, looked up): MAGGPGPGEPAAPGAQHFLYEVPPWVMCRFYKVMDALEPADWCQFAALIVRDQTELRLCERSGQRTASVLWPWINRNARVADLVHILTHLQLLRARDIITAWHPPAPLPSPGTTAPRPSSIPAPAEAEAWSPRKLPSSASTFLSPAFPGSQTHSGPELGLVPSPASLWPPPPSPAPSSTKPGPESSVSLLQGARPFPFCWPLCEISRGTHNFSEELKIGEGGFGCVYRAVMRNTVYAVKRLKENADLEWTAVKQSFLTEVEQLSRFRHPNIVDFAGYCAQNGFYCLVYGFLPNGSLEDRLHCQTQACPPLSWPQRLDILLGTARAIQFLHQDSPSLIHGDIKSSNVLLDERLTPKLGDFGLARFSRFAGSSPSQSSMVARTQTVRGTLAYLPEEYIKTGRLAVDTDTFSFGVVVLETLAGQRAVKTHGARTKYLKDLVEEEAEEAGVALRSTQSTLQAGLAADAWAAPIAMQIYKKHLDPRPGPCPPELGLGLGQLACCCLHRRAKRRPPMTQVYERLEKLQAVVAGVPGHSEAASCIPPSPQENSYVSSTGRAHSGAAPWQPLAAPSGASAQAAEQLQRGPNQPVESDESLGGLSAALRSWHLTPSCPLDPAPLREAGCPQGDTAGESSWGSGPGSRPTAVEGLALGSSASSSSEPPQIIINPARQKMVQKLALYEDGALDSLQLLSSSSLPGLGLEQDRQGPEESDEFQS

[10] = target: T3, Myotonin-protein kinase (Homo sapiens) (UniProt Q09013); assay: Selectivity interaction (KinomeScan (DiscoverX)) EUB0000092b DMPK; conditions: at 10 µM
T3 sequence (whole entry): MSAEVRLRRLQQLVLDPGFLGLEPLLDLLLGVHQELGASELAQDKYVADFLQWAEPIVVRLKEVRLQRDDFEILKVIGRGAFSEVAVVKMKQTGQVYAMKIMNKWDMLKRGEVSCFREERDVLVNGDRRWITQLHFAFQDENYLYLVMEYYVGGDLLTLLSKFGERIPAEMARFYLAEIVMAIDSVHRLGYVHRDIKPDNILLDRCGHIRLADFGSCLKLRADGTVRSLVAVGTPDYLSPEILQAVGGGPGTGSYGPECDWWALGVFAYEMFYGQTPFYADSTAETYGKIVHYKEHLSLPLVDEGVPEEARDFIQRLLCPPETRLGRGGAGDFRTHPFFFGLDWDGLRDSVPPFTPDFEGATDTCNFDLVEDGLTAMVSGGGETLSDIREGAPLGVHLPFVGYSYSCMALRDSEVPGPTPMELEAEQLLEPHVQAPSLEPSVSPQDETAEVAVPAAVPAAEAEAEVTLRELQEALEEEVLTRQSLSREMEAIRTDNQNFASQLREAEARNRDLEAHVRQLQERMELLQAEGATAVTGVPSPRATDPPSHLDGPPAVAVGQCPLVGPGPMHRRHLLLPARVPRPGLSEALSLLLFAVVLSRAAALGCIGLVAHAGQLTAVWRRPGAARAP

SMILES: CNC(=O)Nc1ccc(-c2nc(N3CC4CCC(C3)O4)c3cnn(C4CCC5(CC4)OCCO5)c3n2)cc1
% of control [1]: 100%

% of inhibition [2]: 3.68%
% of inhibition ([3]; at 0.01 µM): 3.3%
% of inhibition ([3]; at 0.04 µM): 10.6%
% of inhibition ([3]; at 0.2 µM): 6.9%
% of inhibition ([3]; at 1 µM): -0.7%
% of inhibition ([3]; at 5 µM): 4.9%
% of inhibition [4]: 5.09%
% of inhibition ([5]; at 0.01 µM): -6.1%
% of inhibition ([5]; at 0.04 µM): -5.7%
% of inhibition ([5]; at 0.2 µM): 2.9%
% of inhibition ([5]; at 1 µM): 18.9%
% of inhibition ([5]; at 5 µM): -9.1%
SMILES: CC[C@@H]1[C@H](F)C(=O)N[C@@H]1COc1nccc2cc(C(N)=O)c(OC)cc12 [ZIMLOVISERTIB]

SMILES: COCC(=O)NC/C=C/c1ccc2ncnc(Nc3ccc(Oc4ccc(C)nc4)c(C)c3)c2c1 [CP-724714]
% of control [6]: 84%
% of control [7]: 100%

% activity [8]: > 90%
SMILES: CNCCN1CCC(c2cc(CN(C)C(=O)c3cccc(Oc4ccccc4)c3)ccn2)CC1

SMILES: C=CC(=O)Nc1ccc(C(=O)Nc2[nH]nc3c2CN(C(=O)N[C@H](CN(C)C)c2ccccc2)C3(C)C)cc1
% of engagement [9]: 1.3%

SMILES: CCC(=O)N1CCN(c2ccc(-n3c(=O)ccc4cnc5ccc(-c6cnc7ccccc7c6)cc5c43)cc2C(F)(F)F)CC1
% of control [10]: 77%
